Legend:
Assay type in all cases: cell-based, human
[1] = test system: OVCAR-8; assay: NCI-60 five-dose assay (ovarian cancer); conditions: 48 h, SRB
[2] = test system: SNB-75; assay: NCI-60 one-dose screen (CNS cancer); conditions: 10 µM single dose, 48 h
Procedure: (§1) The obtained quinolinequinones were submitted to NCI, Bethesda, USA, and, as per standard protocol of NCI, all compounds were evaluated for their antiproliferative activity at single-dose assay (10 µM concentration in DMSO) on a panel of 60 cancer cell lines derived from leukemia, non-small-cell lung, colon, CNS, melanoma, ovarian, renal, prostate, and breast, as per protocol. Tested compounds were added to the microtiter culture plates followed by incubation for 48 h at 37 °C. Sulforhodamine B (SRB), a protein-binding dye, is used for endpoint determination. The percent of the growth of the treated cells was determined in comparison to the untreated control cells and the results of each tested compound were reported. Data from one-dose experiments pertain to the percentage growth at 10 μM [16, 17, 18].

[3] = test system: SF-295; assay: NCI-60 one-dose screen (CNS cancer); conditions: 10 µM single dose, 48 h
Procedure: as §1

[4] = test system: SNB-19; assay: NCI-60 one-dose screen (CNS cancer); conditions: 10 µM single dose, 48 h
Procedure: as §1

[5] = test system: SF-539; assay: NCI-60 one-dose screen (CNS cancer); conditions: 10 µM single dose, 48 h
Procedure: as §1

[6] = test system: U251; assay: NCI-60 one-dose screen (CNS cancer); conditions: 10 µM single dose, 48 h
Procedure: as §1

[7] = test system: SF-268; assay: NCI-60 one-dose screen (CNS cancer); conditions: 10 µM single dose, 48 h
Procedure: as §1

[8] = test system: CCRF-CEM; assay: NCI-60 one-dose screen (leukemia); conditions: 10 µM single dose
Procedure: as §1

[9] = test system: SR; assay: NCI-60 one-dose screen (leukemia); conditions: 10 µM single dose, 48 h
Procedure: as §1

[10] = test system: K-562; assay: NCI-60 one-dose screen (leukemia)
Procedure: as §1

[11] = test system: RPMI-8226; assay: NCI-60 one-dose screen (leukemia); conditions: 10 µM single dose, 48 h
Procedure: as §1

[12] = test system: DU-145; assay: NCI-60 five-dose assay (prostate cancer); conditions: 48 h, SRB
[13] = test system: M14; assay: NCI-60 five-dose assay (melanoma); conditions: 48 h, SRB
[14] = test system: OVCAR-5; assay: NCI-60 one-dose screen (ovarian cancer); conditions: 10 µM single dose
Procedure: as §1

[15] = test system: SK-OV-3; assay: NCI-60 one-dose screen (ovarian cancer); conditions: 10 µM single dose, 48 h
Procedure: as §1

[16] = test system: IGROV1; assay: NCI-60 one-dose screen (ovarian cancer); conditions: 10 µM single dose, 48 h
Procedure: as §1

[17] = test system: OVCAR-8; assay: NCI-60 one-dose screen (ovarian cancer); conditions: 10 µM single dose, 48 h
Procedure: as §1

[18] = test system: NCI/ADR-RES; assay: NCI-60 one-dose screen (ovarian cancer); conditions: 10 µM single dose, 48 h
Procedure: as §1

[19] = test system: OVCAR-4; assay: NCI-60 one-dose screen (ovarian cancer); conditions: 10 µM single dose, 48 h
Procedure: as §1

[20] = test system: HCT-15; assay: NCI-60 five-dose assay (colon cancer); conditions: 48 h, SRB
[21] = test system: SR; assay: NCI-60 five-dose assay (leukemia); conditions: 48 h, SRB
[22] = test system: HT29; assay: NCI-60 one-dose screen (colon cancer)
Procedure: as §1

[23] = test system: HCT-116; assay: NCI-60 one-dose screen (colon cancer); conditions: 10 µM single dose, 48 h
Procedure: as §1

[24] = test system: HCC-2998; assay: NCI-60 one-dose screen (colon cancer); conditions: 10 µM single dose
Procedure: as §1

[25] = test system: COLO 205; assay: NCI-60 one-dose screen (colon cancer); conditions: 10 µM single dose, 48 h
Procedure: as §1

[26] = test system: HCT-15; assay: NCI-60 one-dose screen (colon cancer); conditions: 10 µM single dose, 48 h
Procedure: as §1

[27] = test system: SW-620; assay: NCI-60 one-dose screen (colon cancer); conditions: 10 µM single dose, 48 h
Procedure: as §1

[28] = test system: KM12; assay: NCI-60 one-dose screen (colon cancer); conditions: 10 µM single dose, 48 h
Procedure: as §1

[29] = test system: RXF 393; assay: NCI-60 five-dose assay (renal cancer); conditions: 48 h, SRB
[30] = test system: NCI-H23; assay: NCI-60 five-dose assay (non-small cell lung cancer); conditions: 48 h, SRB
[31] = test system: SNB-75; assay: NCI-60 five-dose assay (CNS cancer); conditions: 48 h, SRB
[32] = test system: HS 578T; assay: NCI-60 five-dose assay (breast cancer); conditions: 48 h, SRB
[33] = test system: SK-MEL-5; assay: NCI-60 five-dose assay (melanoma); conditions: 48 h, SRB
[34] = test system: SF-295; assay: NCI-60 five-dose assay (CNS cancer); conditions: 48 h, SRB
[35] = test system: ACHN; assay: NCI-60 five-dose assay (renal cancer); conditions: 48 h, SRB
[36] = test system: K-562; assay: NCI-60 five-dose assay (leukemia); conditions: SRB
[37] = test system: COLO 205; assay: NCI-60 five-dose assay (colon cancer); conditions: 48 h, SRB
[38] = test system: SNB-19; assay: NCI-60 five-dose assay (CNS cancer); conditions: 48 h, SRB
[39] = Homo sapiens, read-out: LC50 (the source's name)

COc1cc(NC2=C(Cl)C(=O)c3nc(C)ccc3C2=O)cc(OC)c1 [AQQ5]
TGI [1]: 3.28 µM
GI50 ([1]; Homo sapiens): 1.64 µM
CC50 [1, 39]: 6.56 µM
GP (growth percentage) [2]: −4.09%
GP (growth percentage) [3]: 51.57%
GP (growth percentage) [4]: 30.42%
GP (growth percentage) [5]: −30.92%
GP (growth percentage) [6]: 36.76%
GP (growth percentage) [7]: 37.00%
GP (growth percentage) ([8]; 48 h): 2.72%
inhibition at 10 µM ([8]; Homo sapiens): 97.3%
GP (growth percentage) [9]: −3.19%
GP (growth percentage) ([10]; 10 µM single dose, 48 h): 4.73%
inhibition at 10 µM ([10]; Homo sapiens, K562, 10 µM single dose): 95.3%
GP (growth percentage) [11]: −39.66%
TGI [12]: 3.55 µM
GI50 ([12]; Homo sapiens): 1.84 µM
CC50 [12, 39]: 6.83 µM
TGI [13]: 3.09 µM
GI50 ([13]; Homo sapiens): 1.69 µM
LC50 ([13]; Homo sapiens): 5.66 µM
GP (growth percentage) ([14]; 48 h): 22.00%
inhibition at 10 µM ([14]; Homo sapiens): 78%
GP (growth percentage) [15]: 93.82%
GP (growth percentage) [16]: −23.13%
GP (growth percentage) [17]: −0.82%
GP (growth percentage) [18]: −1.26%
GP (growth percentage) [19]: −93.28%
TGI [20]: 3.92 µM
GI50 ([20]; Homo sapiens): 1.54 µM
TGI [21]: 2.43 µM
GI50 ([21]; Homo sapiens): 0.35 µM
CC50 [21, 39]: > 100 µM
GP (growth percentage) ([22]; 10 µM single dose, 48 h): 24.91%
inhibition at 10 µM ([22]; Homo sapiens, HT-29, 10 µM single dose): 75.1%
GP (growth percentage) [23]: −97.84%
GP (growth percentage) ([24]; 48 h): 14.44%
inhibition at 10 µM ([24]; Homo sapiens): 85.6%
GP (growth percentage) [25]: −80.52%
GP (growth percentage) [26]: −66.21%
GP (growth percentage) [27]: −90.16%
GP (growth percentage) [28]: 39.30%
TGI [29]: 2.99 µM
GI50 ([29]; Homo sapiens): 1.63 µM
LC50 ([29]; Homo sapiens): 5.48 µM
TGI [30]: 3.15 µM
GI50 ([30]; Homo sapiens): 1.53 µM
CC50 [30, 39]: 6.49 µM
TGI [31]: 5.37 µM
GI50 ([31]; Homo sapiens): 1.94 µM
LC50 (50% lethal concentration) ([31]; Homo sapiens): 23.2 µM
TGI [32]: 5.78 µM
GI50 ([32]; Homo sapiens): 2.43 µM
CC50 [32, 39]: > 100 µM
TGI [33]: 2.97 µM
GI50 ([33]; Homo sapiens): 1.62 µM
CC50 [33, 39]: 5.47 µM
TGI [34]: 5.41 µM
GI50 ([34]; Homo sapiens): 1.99 µM
LC50 (50% lethal concentration) ([34]; Homo sapiens): 20.8 µM
TGI [35]: 3.04 µM
GI50 ([35]; Homo sapiens): 1.67 µM
LC50 ([35]; Homo sapiens): 5.51 µM
TGI ([36]; 48 h): >100 µM
GI50 ([36]; Homo sapiens, K562, 48 h): 0.381 µM
LC50 ([36]; Homo sapiens, K562, 48 h): > 100 µM
TGI [37]: 3.08 µM
GI50 ([37]; Homo sapiens): 1.68 µM
CC50 [37, 39]: 5.63 µM
TGI [38]: 18.8 µM
GI50 ([38]; Homo sapiens): 5.82 µM
CC50 [38, 39]: 44.2 µM

Source: publication PMC11200585, “Prospects for Prostate Cancer Chemotherapy: Cytotoxic Evaluation and Mechanistic Insights of Quinolinequinones with ADME/PK Profile” (Biomedicines, 2024)
